Measurements: patent US8895578B2, “Carboxamide, sulfonamide and amine compounds and methods for using the same” (Rigel Pharmaceuticals, Inc., priority 2007, dated 2014)

Target: AMPK
Experiment: AMPK activation, enzyme-linked immunosorbent assay
Assay type: biochemical
Conditions: Table 2, ELISA
Method: Compounds 1-54 were assayed for their ability to activate AMPK using an enzyme-linked immunosorbent assay.
Compounds 55-62 of Table 1 were assayed for their ability to activate AMPK using an enzyme-linked immunosorbent assay.
Compounds 63-66 of Table 1 were assayed for their ability to activate AMPK using an enzyme-linked immunosorbent assay.
Compounds 67-71 of Table 1 were assayed for their ability to activate AMPK using an enzyme-linked immunosorbent assay.
Compound 72 of Table 1 was assayed for its ability to activate AMPK using an enzyme-linked immunosorbent assay.

Row | SMILES | EC50 [µM]
1 | O=C(NC1CCN(S(=O)(=O)c2cccc(C(F)(F)F)c2)CC1)c1ccc2[nH]c3c(c2c1)CN(Cc1ccc(C(F)(F)F)cc1)CC3 [Compound 30, 2-(4-(trifluoromethyl)benzyl)-N-(1-(3-(trifluoro-methyl)phenylsulfonyl)piperidin-4-yl)-2,3,4,5-tetrahydro-1H-pyrido [4,3-b]indole-8-carboxamide] | 1 to 5
2 | O=C(NC1CCN(S(=O)(=O)c2ccc(Cl)cc2)CC1)c1ccc2[nH]c3c(c2c1)CN(Cc1ccc(C(F)(F)F)cc1)CC3 [Compound 32, N-(1-(4-chlorophenyl-sulfonyl)piperidin-4-yl)-2-(4-(trifluoromethyl)benzyl)-2,3,4,5-tetrahydro-1H-pyrido[4,3-b]indole-8-carboxamide] | 1 to 5
3 | O=C(NC1CCN(C(=O)Nc2ccc(C(F)(F)F)cc2)CC1)c1ccc2[nH]c3c(c2c1)CN(Cc1ccc(C(F)(F)F)cc1)CC3 [Compound 33, 2-(4-(trifluoromethyl)benzyl)-N-(1-(4-(trifluoro-methyl)phenylcarbamoyl)piperidin-4-yl)-2,3,4,5-tetrahydro-1H-pyrido[4,3-b]indole-8-carboxamide] | 1 to 5
4 | O=C(NC1CCN(S(=O)(=O)c2ccc(F)cc2)CC1)c1ccc2[nH]c3c(c2c1)CN(c1ccc(F)cc1)CC3 [Compound 35, 2-(4-fluorophenyl)-N-(1-(4-fluorophenylsulfonyl)piperidin-4-yl)-2,3,4,5-tetrahydro-1H-pyrido[4,3-b] indole-8-carboxamide] | 10 to 50
5 | O=C(NC1CCN(Cc2cccnc2)CC1)c1ccc2[nH]c3c(c2c1)CN(c1ccc(F)cc1)CC3 [Compound 36, 2-(4-fluorophenyl)-N-(1-(pyridin-3-ylmethyl)piperidin-4-yl)-2,3,4,5-tetrahydro-1H-pyrido[4,3-b]indole-8-carboxamide] | > 100
6 | O=C(NC1CCN(Cc2ccc(C(F)(F)F)cc2)CC1)c1ccc2[nH]c3c(c2c1)CN(c1ccc(F)cc1)CC3 [Compound 37, 2-(4-fluorophenyl)-N-(1-(4-(trifluoromethyl)benzyl)piperidin-4-yl)-2,3,4,5-tetrahydro-1H-pyrido[4,3-b] indole-8-carboxamide] | 5 to 10
7 | CC(C)(C)OC(=O)N1CCC(NC(=O)c2ccc3[nH]c4c(c3c2)CN(c2ccc(F)cc2)CC4)CC1 [Compound 38, tert-butyl 4-(2-(4-fluorophenyl)-2,3,4,5-tetrahydro-1H-pyrido[4,3-b]indole-8-carboxamido) piperidine-1-carboxylate] | 10 to 50
8 | O=C(NC1CCN(C(=O)c2ccc(F)cc2)CC1)c1ccc2[nH]c3c(c2c1)CN(c1ccc(F)cc1)CC3 [Compound 39, N-(1-(4-fluorobenzoyl)piperidin-4-yl)-2-(4-fluorophenyl)-2,3,4,5-tetrahydro-1H-pyrido [4,3-b]indole-8-carboxamide] | 10 to 50
9 | O=C(NC1CCN(C(=O)c2cccnc2)CC1)c1ccc2[nH]c3c(c2c1)CN(c1ccc(F)cc1)CC3 [Compound 40, 2-(4-fluorophenyl)-N-(1-nicotinoylpiperidin-4-yl)-2,3,4,5-tetrahydro-1H-pyrido[4,3-b]indole-8-carboxamide] | > 100
10 | O=C(NC1CCN(C(=O)c2ccc(C(F)(F)F)cc2)CC1)c1ccc2[nH]c3c(c2c1)CN(c1ccc(F)cc1)CC3 [Compound 41, 2-(4-fluorophenyl)-N-(1-(4-(trifluoromethyl)benzoyl)piperidin-4-yl)-2,3,4,5-tetrahydro-1H-pyrido[4,3-b] indole-8-carboxamide] | 10 to 50
11 | CC(C)(C)OC(=O)N1CCC(NC(=O)c2ccc3[nH]c4c(c3c2)CN(Cc2ccc(C(N)=O)cc2)CC4)CC1 [Compound 43, tert-butyl 4-(2-(4-carbamoyl-benzyl)-2,3,4,5-tetrahydro-1H-pyrido[4,3-b]indole-8-carboxamido)piperidine-1-carboxylate] | > 100
12 | N#Cc1ccc(CN2CCC(NC(=O)c3ccc4[nH]c5c(c4c3)CN(Cc3ccc(C(N)=O)cc3)CC5)CC2)cc1 [Compound 44, 2-(4-carbamoylbenzyl)-N-(1-(4-cyanobenzyl)piperidin-4-yl)-2,3,4,5-tetrahydro-1H-pyrido[4,3-b]indole-8-carboxamide] | 10 to 50
